Consider ten compounds from patent US20070111251A1, “Chemical address tags” (priority 2003, published 2007).

One data set has as its system HeLa cells. The data set can be described thus: Kinetic imaging of NBD-triazine probe uptake and sequestration, fitted to nested two-compartment transport model. The data set is classed as cell-based. The settings on record: median over optimal solutions within 5% of the best fit. The method in brief:
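HeLa cells (3000/well, plated 24 h earlier) imaged live with 10 μM NBD probe in RPMI containing 1.0 mM bromophenol blue, about 2 h for influx, then washed and imaged 6 h for efflux, every ~7 min. Perinuclear pixel-intensity CV fitted to a nested two-compartment transport model by simulated annealing.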

For data set [1] the following is noted: pyridine derivatives; cited from earlier work.
Data set [2] deals with live UACC-62 human melanoma cells. As to the kind of experiment: Cell-based screening of extended styryl library: nuclear staining of live cells. The conditions noted are these: live UACC-62 cells; compounds 1-3 at 500 μM. The source says: In one preferred embodiment, an extended styryl dye library, composed of 855 compounds, was synthesized (See, Example 7) and screened for the subcellular localization in live […] human melanoma cells on glass bottom 96-well plates by the combinatorial library synthesis methods disclosed herein. […] The compounds were resynthesized on large scale for further study. (FIG. 16).
Therefore, both 2,4,5-trunethoxy groups and the adamantyl group are important in the specific interaction of compound 1 and DNA. The three related compounds 1, 2, and 3 were incubated in live UACC-62 human melanoma cells to compare their nuclear localization properties. (FIG. 19).

Another data set concerns dsDNA. As to the kind of experiment: Fluorometric titration of styryl dyes with dsDNA in buffer solution. The settings on record: for em^free / Øf^free: free dye; for fluorescence emission increase with DNA versus free compound: highest concentration of DNA tested, 50 μg mL^−1; for Øf^DNA: quantum yield with dsDNA; for Øf^free: quantum yield; for max: spectrophotometric properties of the styryl dyes; for em^DNA: with dsDNA. The data set is classed as binding, Salmon. Here is the method:
In some embodiments, the synthesis of compounds B was achieved by refusing with the pyridine derivatives and iodomethane for 2 hours, and compound B crystallized out in ethyl acetate. The condensation with aldehydes (A) and compound B was performed by refusing with piperidine for 2 hours in EtOH. After cooling to room temperature, the crystallized compounds were filtered and washed with ethyl acetate. With these purified compounds, the fluorescence intensity change upon addition of DNA was tested.
With a series of concentrations of dsDNA (double stranded DNA) added to compound 1, a linear increase in the fluorescence intensities was observed. (FIG. 17). […] At the highest concentration of DNA tested (50 μg mL^−1), the fluorescence emission reached up to 13.3 times higher than that of the free compound. Briefly, FIGS. 18A-18C show the absorption and fluorescence spectra of compounds 1, 2, and 3 (Dye 1, 2, 3 [50 μM], dsDNA [50 μg mL^−1]). A blue shift of 17 nm in the emission wavelength upon DNA addition was observed, without a significant excitation wavelength shift. The structure of compound 1 includes a 2,4,5-trimethoxy group from the benzaldehyde moiety and a unique adamantyl pyridinium functionality.
Unless otherwise noted, starting materials and solvents were purchased from commercial suppliers, and used without purification. Ethanol (EtOH) and ethyl acetate (EA) from Acros Organics (Fisher Scientific, UK) were used as the reaction solvents without any prior purification. Salmon testes solid dsDNA, and phosphate buffered saline (PBS) (NaCl 120 mM, KCl 2.7 mM, and phosphate buffer 10 mM, pH=7.4 at 24° C.) were purchased from Sigma-Aldrich and needed no further purification. Fluorescence intensities were measured by a Jobin Yvon Horiba FluoroMAX-3 fluorimeter (Horiba Group, Kyoto, Japan) with a quartz cuvette cell (10 mm×10 mm×4.5 cm; Starna (Atascadero, Calif.). ^1H-NMR (200 MHz) spectra were determined on Gemini 200 spectrometer (Varian, Inc., Palo Alto, Calif.). Chemical shifts were reported in parts per million (ppm) relative to the line of a singlet at 2.50 ppm for DMSO-d6 and coupling constants (j) are in Hertz (Hz). The following abbreviations are used for spin multiplicity: s=singlet, d=doublet, t=triplet, m=multiplet, and b=broad. All dye products were identified by LC-MS from Agilent Technology (Palo Alto, Calif.), using a C18 column (20×4.0 mm), with 4 minutes elution using a gradient of 5-95% CH3CN (containing 1% acetic acid)-H2O (containing 1% acetic acid), with UV detector at %=400 nm and an electrospray ionization source.

For data set [3], the system named is live UACC-62 human melanoma cells. The data set can be described thus: Organelle-binding test: subcellular localization of styryl library compounds by fluorescence microscopy. The arrangement: key to experimentally determined localization (subscript): The subscript m indicates experimentally determined mitochondrial localization; The subscript o indicates experimentally determined non-mitochondrial localization. The data set is classed as cell-based. The conditions noted are these: for experimentally determined localization (subscript): mitochondrial vs non-mitochondrial, live UACC-62 cells. The protocol: The synthesis was designed so that the reaction mixture can be used directly in biological screening; toxic catalysts (e.g., such as strong acids, bases, and metals) were avoided, and most of the low-boiling point solvents and catalysts (e.g., pyrrolidine) were removed during the microwave reaction, leaving only DMSO, a common solvent for biological sample preparation. In some embodiments, without further purification, the library compounds were incubated with live UACC-62 human melanoma cells growing on glass bottom 96-well plates, and the localizations of the different compounds in the cells were determined using an Axiovert (Carl Zeiss, Inc., Thornwood, N.Y.) microscope (λex=405, 490, and 570 nm; λem>510 nm) with a 100× Zeiss oil immersion objective. […] The images in FIG. 5 show cells stained with selected fluorescent compounds.
Unless otherwise noted in this example, the materials and solvents were obtained from commercial suppliers and were used without further purification. The plate reader used in this example was a Spectra Max Gemini XSF (Molecular Devices, Corp., Sunnyvale, Calif.). In preferred embodiments, for organelle-binding tests, UACC-62 melanoma cells were selected amongst a panel of 60 human cancer cell lines, because their well-spread morphology on glass made them ideally suited for imaging purposes as well as their relevance to biomedical research. (See e.g., R. H. Shoemaker et al., Development of human tumor cell line panels for use in disease oriented drug screening. In: Hall, T. ed., Prediction of Response to Anti-cancer Chemotherapy, New York N.Y.: Alan Liss, 265-286 [1988]).
In some of these embodiments, UACC-62 cells (obtained from the Developmental Therapeutics Program at the National Cancer Institute) were grown in RPMI medium supplemented with 10% fetal calf serum. For microscopy, cells were plated on 96 well tissue-culture plates (Falcon) overnight, in RPMI plus 10% fetal calf serum, at 37° C. in 5% CO2/95% air. Cells were incubated with compounds at an approximate concentration of 50 μM for 1 hour.
A Zeiss Axiovert 135M (Carl Zeiss, Inc., Thornwood, N.Y.) inverted fluorescence microscope outfitted with a FITC/TRITC multipass filter cube (Chroma Technology, Corp., Rockingham, Vt.) was used for screening and routine cell biological fluorescence imaging applications. In some embodiments, epifluorescence microscopy was performed using a Zeiss Axiovert epifluorescence microscope equipped with a 20× objective.
The library compounds, without further purification, were incubated with live UACC-62 human melanoma cells growing on glass bottom 96-well plates (Sigma-Aldrich Corp., St. Louis, Mo.), and the localizations of the different compounds in the cells were determined by an inverted fluorescence microscope (λex=405, 490, and 570 nm; λem>510 nm) at 1000× magnification. Based on their morphology and subcellular distribution, the localizations were ascribed to mitochondria, ER (endoplasmic reticulum), nucleoli, nuclear, and cytoplasmic staining patterns such as diffuse (based on the homogenous staining appearance and exclusion from the nucleus), granular (punctate staining pattern, generally associated with the cell margins) or vesicular (heterogeneous staining pattern, generally associated with the nuclear periphery). Localization studies were performed without a priori information of the compounds' molecular structures. It was possible to ascribe the localization of the compounds to nucleus or cytoplasm, as these organelles are clearly discernible with phase contrast optics. Similarly, it was possible to ascribe localization to nucleoli, as these structures appeared as the most prominent, phase-dense structures within the nucleus. Localization to mitochondria was based on the elongated, characteristic shape of these organelles, which stain positive with established mitochondrial-specific fluorescent probes, like […] or JC-1. (L. B. Chen, Methods Cell Bio., 29:103-123 [1989]). […]

Broadly, the pKa is the pH at which an ionisable group is half protonated. `O=[N+]([O-])c1ccc(NCCCCCCNc2nc(NCCc3ccccn3)nc(NCCC(c3ccccc3)c3ccccc3)n2)c2nonc12` [Compound F9]: in the data set on HeLa cells, the “median Pap(cyto) (apparent partition coefficient between extracellular medium and cytosol)” value (“median Pap(cyto)” for short) stood at 2989.27; the “median Pap(ves) (apparent partition coefficient between cytosol and intracellular vesicles, k(ves)in/k(ves)out)” value (“median Pap(ves)” for short) turned out to be 2940.20. In data set [1], the pKa is recorded as roughly 6.0.

For `COc1cc(OC)c(OC)cc1C=Cc1cc[n+](C23CC4CC(CC(C4)C2)C3)cc1.[Br-]` [Compound 1, 2-[4-[5-(trimethyoxy)phenyl]-ethenyl-1-adamantyl]-4-methylpyridinium bromide], the “nuclear staining / nuclear localization in live cells” value in data set [2] was “clearly stains the nucleus of live cells more selectively”. In the data set on dsDNA, the “blue shift in the emission wavelength upon DNA addition” value turned out to be 17 nm, the emission wavelength is listed as 583 nm, the excitation wavelength is 413 nm and the “fluorescence intensity change upon addition of DNA” value is “strong fluorescence increase”. In the data set with dsDNA, the “Øf^DNA/Øf^free” value is reported as 13.3, the “em^free” value amounted to 583 nm, the “fluorescence emission increase with DNA versus free compound” value amounted to 13.3 fold and the “Øf^DNA” value worked out at 0.0032. Also, in the data set with dsDNA, the “Øf^free” value was found to be 0.00024, the max was 413 nm and the “em^DNA” value is listed as 566 nm. Also, the “linear fluorescence response range” value in the data set on dsDNA (in PBS, without self-quenching or wavelength shifts) was in the range of 0.05 to 100 µM.

Take `COc1ccc(CCNc2nc(NCCCCCCNc3ccc([N+](=O)[O-])c4nonc34)nc(NCCc3ccccn3)n2)cc1` [Compound D9]: in the data set with HeLa cells, the “median Pap(cyto)” value is given as 0.06; the “median Pap(ves)” value came to 99497.01. In addition, in data set [1], the pKa was roughly 6.0.

Regarding `COc1cc(OC)c(OC)cc1C=Cc1cc[n+](C)cc1.[I-]` [Compound 4, 1-Methyl-4[2-(2,4,5-trimethoxy-phenyl)-vinyl]pyridinium iodide], the “fluorescence intensity change upon addition of DNA” value in the data set with dsDNA is recorded as “significantly reduced the DNA response”.

Take `COc1cccc(CNc2nc(NCCCCCCNc3ccc([N+](=O)[O-])c4nonc34)nc(NCCc3ccccn3)n2)c1` [Compound B9]: in the data set on HeLa cells, the “median Pap(cyto)” value is listed as 15351.10; the “median Pap(ves)” value is on record as 100.42. Moreover, in data set [1], the pKa is listed as roughly 6.0.

For `COc1cc(C=Cc2cc[n+](C34CC5CC(CC(C5)C3)C4)cc2)cc(OC)c1OC.[Br-]` [Compound 2], the “nuclear staining / nuclear localization in live cells” value in data set [2] was “stronger fluorescence backgrounds and spread throughout the cytoplasm”. For the same compound, in the data set on dsDNA, the “Øf^DNA/Øf^free” value came out at 4.3, the “em^free” value was determined as 553 nm, the “fluorescence emission increase with DNA versus free compound” value was determined as 4.3 fold and the “Øf^DNA” value turned out to be 0.022. In addition, in the data set on dsDNA, the “Øf^free” value is recorded as 0.0051, the max was 366 nm and the “em^DNA” value is on record as 520 nm.

Consider `COc1ccc2ccccc2c1C=Cc1c(C)ccc[n+]1C.[I-]` [Compound A23-B4], for which the “experimentally determined localization (subscript)” value in data set [3] is “o”.

As to `COc1ccc(C=Cc2cc[n+](C34CC5CC(CC(C5)C3)C4)cc2)c(OC)c1OC.[Br-]` [Compound 3], the “nuclear staining / nuclear localization in live cells” value in data set [2] is “stronger fluorescence backgrounds and spread throughout the cytoplasm”. For the same compound, in the data set with dsDNA, the “Øf^DNA/Øf^free” value is 1.5, the “em^free” value is 491 nm, the “fluorescence emission increase with DNA versus free compound” value was 1.5 fold and the “Øf^DNA” value came to 0.0037. Also, in the data set with dsDNA, the “Øf^free” value came out at 0.0024, the max was 370 nm and the “em^DNA” value turned out to be 592 nm.

As for `CN(C)c1ccc(C=Cc2ccc3ccccc3[n+]2C)c2ccccc12.[I-]` [Compound A27-B8], the “experimentally determined localization (subscript)” value in data set [3] is recorded as “m”.

For the compound `C[n+]1c(C=Cc2ccc(OCc3ccccc3)c(OCc3ccccc3)c2)ccc2ccccc21.[I-]` [Compound H12], the representative localization entry in data set [3] (FIG. 5, live UACC-62 cells) was “vesicular”.
